Data taken from patent US20090285820A1, “Methods of Treating Degenerative Disorders With Rac 1B Inhibitor” (priority 2006, published 2009).

Assays:
Format in all cases: cell-based
[1] = test system: rac1b mRNA in SH-SY5Y cells; assay: Induction of rac1b splicing by oxidative stress, nested PCR of rac1b; details: 24 hours, subtoxic concentrations
Protocol: (§1) To test whether ROS production may affect the rac1/rac1b ratio SH-SY5Y cells were exposed to various ROS-inducing agents at the indicated concentrations for 24 hours and cell viability was determined using a LDH assay (Cytotox96, Promega).
(§2) SH-SY5Y cells were plated in 24 well plates (ATGC, France) at the initial density of 3*10^5 cells/well. After 24 hours, cells were treated with various ROS-inducing agents at the indicated concentrations. After 24 h incubation, a LDH assay was conducted to reveal cell viability and cells were processed for RNA extraction using Trizol.
(§3) To test the effect of ROS producing agents TBH and 6-OHDA on mRNA levels of rac1 and rac1b, SH-SY5Y cells were exposed to various ROS-inducing agents at the indicated concentrations for 24 hours and rac1 and rac1b were either coamplified using primers nm—006908_F1 and nm—006908_R1, or rac1b was specifically amplified in a nested PCR approach that sequentially used primers nm—006908_F1 and nm—006908_R1, then primers nm—006908_F2 and nm—006908_R1. GAPDH was amplified as control.

[2] = test system: rac1 mRNA in SH-SY5Y cells; assay: Effect of oxidative stress on rac1 levels, PCR of rac1; details: 24 hours
Protocol: as §1, §2, §3

[3] = test system: rac1b mRNA in rat primary cortical cells; assay: Induction of rac1b splicing by Abeta, nested PCR of rac1b mRNA; details: rat cortical cells exposed to Abeta for 24 hours; observed at 11.25 and 22.5 μM; two independent cultures
Protocol: Rat primary cortical cell cultures are sensitive to Abeta toxicity, the neurotoxicity of which involves different mechanisms such as calcium homeostasis dysregulation, accumulation of ROS, secondary excitotoxicity and caspase activation (Zhang et al, J Neurochem 1996, 67 (4) 1595-1606). Abeta peptide is dissolved in 100% HFIP (1,1,1,3,3,3-hexafluoro-2-propanol), then dryed out and resuspended in 100% DMSO and rediluted in DMEM/F12 without phenol red. The solution maturates by incubation at 37° C. during 72 h and Aβ oligomers are then added on 7 days cultures for 24 h. After 24 h incubation, cells were processed for RNA extraction using Trizol. A nested PCR approach was used for the amplification rac1b using the following primers: nm—006908_F1: […] (SEQ ID NO 9), nm—006908_R1: TGGCATTGAGTGCGAAGGC (SEQ ID NO 10), nm—006908_F2: AAAGACAAGCCGATTGCCG (SEQ ID NO 11). Rac1 was amplified following the first PCR of the protocol described below using primers nm—006908_F1 and nm—006908_R1. In these conditions, rac1b was not detected on gel due to its low quantity after single PCR amplification and was easily detected using primers nm—006908_F2 and nm—006908_R1 in the nested PCR. […]

| Compound | mRNA levels of rac1b [1] | mRNA levels of rac1 [2] | mRNA levels of rac1b [3] |
| --- | --- | --- | --- |
| NCCc1cc(O)c(O)cc1O [6-OHDA, 6-hydroxydopamine] | dose dependent accumulation of rac1b | rac1 levels are not altered |  |
| CC(C)(C)OO [TBH, t-butyl hydroperoxide] | dose dependent accumulation of rac1b | rac1 levels are not altered |  |
| Abeta: fragment of Abeta42 containing the aminoacids 25 to 35 that reproduces the toxic mechanisms of Aβ42 (GSNKGAIIGLM; Amyloid-beta protein 42; UniProt P05067 696-706, looked up, fragment) |  |  | dose dependent accumulation of rac1b mRNA |
